{"source": "paper PMC6934184", "about": "“Selective DNA-PKcs inhibition extends the therapeutic index of localized radiotherapy and chemotherapy” (The Journal of Clinical Investigation, 2019)", "target": "T1, MAP3K3 (MEKK3) (Homo sapiens, UniProt Q99759)", "T1 construct": "purchased Thermo Fisher Scientific (Life Technologies) SelectScreen", "T1 sequence (Q99759 whole entry)": "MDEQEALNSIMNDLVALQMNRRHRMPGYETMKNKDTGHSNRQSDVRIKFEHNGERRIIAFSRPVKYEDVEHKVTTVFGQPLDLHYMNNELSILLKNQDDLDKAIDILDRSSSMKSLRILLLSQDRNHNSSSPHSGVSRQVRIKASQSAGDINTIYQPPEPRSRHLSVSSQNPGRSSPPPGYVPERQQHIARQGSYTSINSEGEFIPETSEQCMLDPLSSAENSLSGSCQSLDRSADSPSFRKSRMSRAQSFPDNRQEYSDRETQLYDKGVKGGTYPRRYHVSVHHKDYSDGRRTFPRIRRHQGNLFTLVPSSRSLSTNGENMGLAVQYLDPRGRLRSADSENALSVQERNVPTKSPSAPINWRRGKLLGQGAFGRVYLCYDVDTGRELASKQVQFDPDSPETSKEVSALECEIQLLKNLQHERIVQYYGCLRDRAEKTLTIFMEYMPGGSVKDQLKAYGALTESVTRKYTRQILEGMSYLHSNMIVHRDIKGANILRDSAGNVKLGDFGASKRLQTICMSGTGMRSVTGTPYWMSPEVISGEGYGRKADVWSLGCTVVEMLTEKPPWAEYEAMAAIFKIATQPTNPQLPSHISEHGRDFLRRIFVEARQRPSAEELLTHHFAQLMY", "test": "SelectScreen LanthaScreen", "type": "binding", "settings": "read-out: % displacement", "method_in_brief": "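SelectScreen broad panel; activity (Z'LYTE, Adapta) plus binding formats. ATP: Km app for CSF1R Z'LYTE; 10 for CAMK1 Adapta. Readout = % per kinase.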", "data": [{"smiles": "CN(C(=O)CN1CCOCC1)c1ccc2sc3c(-c4cccc5c(=O)cc(N6CC7CCC(C6)O7)oc45)cccc3c2c1", "note": "[NU5455]", "values": [{"measurement": "inhibition at 1 µM", "value": -1.1, "unit": "%"}]}]}
